Source: US20080051466A1, “Isoalpha acid based protein kinase modulation cancer treatment” (Metaproteomics, LLC, priority 2006, published 2008)

Columns and labels:
Test in all cases: KinaseProfiler Assay
Type in all cases: biochemical
GSK3α = GSK3α (Homo sapiens, UniProt P49840); settings: read-out: GSK3α, % of Control
PAK5 = PAK5 (Homo sapiens, UniProt Q9P286); settings: read-out: PAK5, % of Control
Fes = Fes (Homo sapiens, UniProt P07332); settings: read-out: Fes, % of Control
CDK9/cyclin T1 = CDK9/cyclin T1 (Homo sapiens, UniProt P50750); settings: read-out: CDK9/cyclin T1, % of Control
CaMKI = CaMKI (Homo sapiens, UniProt Q14012); settings: read-out: CaMKI, % of Control
IKKβ = target: T1, IKKβ (Homo sapiens, UniProt O14920); settings: read-out: IKKβ, % of Control
T1 sequence (O14920 1-756): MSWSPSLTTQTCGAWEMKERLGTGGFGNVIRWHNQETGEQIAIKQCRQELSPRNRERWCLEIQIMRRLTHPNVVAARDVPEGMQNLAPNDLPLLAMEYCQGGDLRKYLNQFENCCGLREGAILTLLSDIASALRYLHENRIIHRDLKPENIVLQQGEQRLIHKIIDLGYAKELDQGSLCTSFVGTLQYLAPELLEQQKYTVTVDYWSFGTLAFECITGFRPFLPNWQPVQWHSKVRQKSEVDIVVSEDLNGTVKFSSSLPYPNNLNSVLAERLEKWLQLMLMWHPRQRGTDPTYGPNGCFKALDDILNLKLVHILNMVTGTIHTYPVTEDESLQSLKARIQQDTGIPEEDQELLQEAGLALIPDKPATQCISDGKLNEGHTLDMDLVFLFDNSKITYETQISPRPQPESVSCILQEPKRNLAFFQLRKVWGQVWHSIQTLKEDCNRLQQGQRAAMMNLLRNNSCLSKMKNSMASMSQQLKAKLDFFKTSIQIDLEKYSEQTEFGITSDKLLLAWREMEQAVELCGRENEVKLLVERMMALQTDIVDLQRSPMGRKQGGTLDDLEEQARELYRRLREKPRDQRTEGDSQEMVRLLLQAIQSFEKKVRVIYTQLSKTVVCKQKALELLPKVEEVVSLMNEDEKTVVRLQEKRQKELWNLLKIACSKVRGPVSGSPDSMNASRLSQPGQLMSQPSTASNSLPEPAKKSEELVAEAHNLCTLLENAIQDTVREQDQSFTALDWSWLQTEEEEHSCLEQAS

cSRC = cSRC (Homo sapiens, UniProt P12931); settings: read-out: cSRC, % of Control
CDK5/p35 = CDK5/p35 (Homo sapiens, UniProt Q00535); settings: read-out: CDK5/p35, % of Control
IGF-1R = IGF-1R (Homo sapiens, UniProt P08069); settings: read-out: IGF-1R, % of Control
Fer = Fer (Homo sapiens, UniProt P16591); settings: read-out: Fer, % of Control
ErbB4 = ErbB4 (Homo sapiens, UniProt Q15303); settings: read-out: ErbB4, % of Control
Pim-1 = Pim-1 (Homo sapiens, UniProt P11309); settings: read-out: Pim-1, % of Control
Pim-1, sequence (P11309 whole entry): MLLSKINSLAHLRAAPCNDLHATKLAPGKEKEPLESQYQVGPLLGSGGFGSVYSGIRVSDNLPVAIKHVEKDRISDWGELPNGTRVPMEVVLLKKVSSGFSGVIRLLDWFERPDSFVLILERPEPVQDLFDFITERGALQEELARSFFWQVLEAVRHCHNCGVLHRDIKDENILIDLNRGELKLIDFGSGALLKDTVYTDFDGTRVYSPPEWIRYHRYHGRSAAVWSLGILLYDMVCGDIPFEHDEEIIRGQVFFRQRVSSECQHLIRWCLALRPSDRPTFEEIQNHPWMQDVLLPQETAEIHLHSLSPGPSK

CDK9/cyclin T1, sequence (P50750 whole entry): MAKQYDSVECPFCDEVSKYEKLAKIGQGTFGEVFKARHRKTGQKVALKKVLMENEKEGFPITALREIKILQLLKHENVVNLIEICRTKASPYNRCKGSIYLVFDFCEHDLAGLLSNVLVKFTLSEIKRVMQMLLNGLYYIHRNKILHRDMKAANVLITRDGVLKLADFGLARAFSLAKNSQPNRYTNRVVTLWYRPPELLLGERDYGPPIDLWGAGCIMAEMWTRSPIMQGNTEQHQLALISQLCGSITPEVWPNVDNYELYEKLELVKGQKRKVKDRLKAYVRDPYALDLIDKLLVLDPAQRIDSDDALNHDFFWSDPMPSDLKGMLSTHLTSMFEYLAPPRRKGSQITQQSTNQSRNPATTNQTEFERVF
CDK9/cyclin T1, sequence (O60563 whole entry partner): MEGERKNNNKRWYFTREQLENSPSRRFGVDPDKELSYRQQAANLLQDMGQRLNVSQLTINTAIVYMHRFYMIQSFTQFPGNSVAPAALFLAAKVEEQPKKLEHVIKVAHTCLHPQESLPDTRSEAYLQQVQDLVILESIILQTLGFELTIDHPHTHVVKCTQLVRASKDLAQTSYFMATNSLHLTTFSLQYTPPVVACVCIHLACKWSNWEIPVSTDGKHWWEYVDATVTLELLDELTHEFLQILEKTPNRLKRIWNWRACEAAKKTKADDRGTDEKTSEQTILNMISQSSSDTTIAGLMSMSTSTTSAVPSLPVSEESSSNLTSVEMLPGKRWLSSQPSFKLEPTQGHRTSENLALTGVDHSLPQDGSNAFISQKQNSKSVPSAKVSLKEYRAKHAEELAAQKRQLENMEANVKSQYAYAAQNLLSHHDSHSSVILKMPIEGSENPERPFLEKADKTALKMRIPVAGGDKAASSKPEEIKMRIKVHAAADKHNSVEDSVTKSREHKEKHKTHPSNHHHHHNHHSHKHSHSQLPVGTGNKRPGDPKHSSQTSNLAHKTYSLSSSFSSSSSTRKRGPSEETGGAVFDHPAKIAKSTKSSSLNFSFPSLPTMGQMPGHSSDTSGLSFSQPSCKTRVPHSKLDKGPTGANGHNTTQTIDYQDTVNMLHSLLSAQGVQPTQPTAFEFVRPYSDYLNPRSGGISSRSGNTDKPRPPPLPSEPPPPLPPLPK
cSRC, sequence (P12931 whole entry): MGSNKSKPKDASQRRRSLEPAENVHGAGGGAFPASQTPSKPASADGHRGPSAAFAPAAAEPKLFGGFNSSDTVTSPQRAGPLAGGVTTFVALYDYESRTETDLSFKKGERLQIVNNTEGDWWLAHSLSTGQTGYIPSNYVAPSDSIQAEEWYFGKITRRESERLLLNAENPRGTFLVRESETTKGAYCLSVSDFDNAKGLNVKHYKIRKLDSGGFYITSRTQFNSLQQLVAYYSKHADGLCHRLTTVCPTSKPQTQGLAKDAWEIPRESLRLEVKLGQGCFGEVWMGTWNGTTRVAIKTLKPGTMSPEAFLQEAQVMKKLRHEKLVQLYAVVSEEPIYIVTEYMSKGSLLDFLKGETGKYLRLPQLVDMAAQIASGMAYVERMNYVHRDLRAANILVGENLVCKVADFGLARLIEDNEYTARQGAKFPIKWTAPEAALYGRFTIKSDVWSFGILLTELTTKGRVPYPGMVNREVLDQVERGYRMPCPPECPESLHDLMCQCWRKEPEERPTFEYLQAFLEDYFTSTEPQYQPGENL
ErbB4, sequence (Q15303 26-1308): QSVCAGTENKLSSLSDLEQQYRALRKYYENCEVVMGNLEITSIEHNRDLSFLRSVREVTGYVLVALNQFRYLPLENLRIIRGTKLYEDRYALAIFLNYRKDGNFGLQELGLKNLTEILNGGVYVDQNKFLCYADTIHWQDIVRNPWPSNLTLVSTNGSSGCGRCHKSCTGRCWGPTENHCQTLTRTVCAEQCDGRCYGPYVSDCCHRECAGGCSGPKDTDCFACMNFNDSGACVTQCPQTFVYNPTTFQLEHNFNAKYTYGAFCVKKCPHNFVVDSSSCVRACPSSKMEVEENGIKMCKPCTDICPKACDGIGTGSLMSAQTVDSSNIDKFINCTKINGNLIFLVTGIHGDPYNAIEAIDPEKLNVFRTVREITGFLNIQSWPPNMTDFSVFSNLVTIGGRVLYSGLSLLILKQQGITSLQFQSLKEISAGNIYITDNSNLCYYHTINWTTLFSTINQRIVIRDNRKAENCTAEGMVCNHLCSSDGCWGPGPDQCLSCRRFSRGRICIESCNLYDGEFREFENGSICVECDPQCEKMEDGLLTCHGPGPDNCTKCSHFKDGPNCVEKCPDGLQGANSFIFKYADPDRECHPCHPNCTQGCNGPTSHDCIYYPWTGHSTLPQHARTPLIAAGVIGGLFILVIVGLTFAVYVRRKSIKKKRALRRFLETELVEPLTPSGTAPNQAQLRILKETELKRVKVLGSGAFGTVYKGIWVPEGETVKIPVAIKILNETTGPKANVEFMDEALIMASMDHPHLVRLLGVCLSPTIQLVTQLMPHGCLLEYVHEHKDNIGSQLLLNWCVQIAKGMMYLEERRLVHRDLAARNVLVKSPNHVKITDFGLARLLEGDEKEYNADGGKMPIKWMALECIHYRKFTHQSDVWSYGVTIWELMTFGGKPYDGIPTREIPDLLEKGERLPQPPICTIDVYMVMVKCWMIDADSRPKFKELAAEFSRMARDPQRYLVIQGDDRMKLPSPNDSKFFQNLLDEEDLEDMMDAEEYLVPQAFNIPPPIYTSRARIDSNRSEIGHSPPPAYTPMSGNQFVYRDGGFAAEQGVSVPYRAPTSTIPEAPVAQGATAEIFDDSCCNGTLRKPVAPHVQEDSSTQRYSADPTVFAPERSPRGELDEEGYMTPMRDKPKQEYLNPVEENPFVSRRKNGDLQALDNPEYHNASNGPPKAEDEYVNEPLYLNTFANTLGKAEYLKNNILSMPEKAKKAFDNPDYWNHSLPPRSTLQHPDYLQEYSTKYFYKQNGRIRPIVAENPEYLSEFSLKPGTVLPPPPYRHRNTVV
Fes, sequence (P07332 whole entry): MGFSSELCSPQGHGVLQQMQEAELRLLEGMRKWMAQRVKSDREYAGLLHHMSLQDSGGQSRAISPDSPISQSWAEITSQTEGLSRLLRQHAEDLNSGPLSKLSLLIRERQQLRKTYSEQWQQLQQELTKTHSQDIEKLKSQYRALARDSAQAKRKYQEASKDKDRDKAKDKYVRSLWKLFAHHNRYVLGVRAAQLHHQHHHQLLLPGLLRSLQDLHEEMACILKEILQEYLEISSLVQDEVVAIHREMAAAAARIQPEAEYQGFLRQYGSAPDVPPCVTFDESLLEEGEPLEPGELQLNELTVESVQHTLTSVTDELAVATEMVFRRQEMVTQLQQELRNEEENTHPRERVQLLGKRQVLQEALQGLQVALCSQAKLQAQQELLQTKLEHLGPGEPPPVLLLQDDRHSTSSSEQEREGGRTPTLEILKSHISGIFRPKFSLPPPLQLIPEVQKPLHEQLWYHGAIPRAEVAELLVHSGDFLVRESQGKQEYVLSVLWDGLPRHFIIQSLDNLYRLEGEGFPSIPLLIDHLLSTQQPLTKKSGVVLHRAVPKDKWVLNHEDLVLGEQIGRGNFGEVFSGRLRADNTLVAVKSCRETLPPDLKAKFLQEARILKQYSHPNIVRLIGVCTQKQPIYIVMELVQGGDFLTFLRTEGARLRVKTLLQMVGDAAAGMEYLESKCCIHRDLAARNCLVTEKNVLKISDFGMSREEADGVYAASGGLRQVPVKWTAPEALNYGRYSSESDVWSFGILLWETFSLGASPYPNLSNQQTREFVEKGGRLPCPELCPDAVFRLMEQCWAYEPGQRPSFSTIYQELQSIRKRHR
GSK3α, sequence (P49840 whole entry): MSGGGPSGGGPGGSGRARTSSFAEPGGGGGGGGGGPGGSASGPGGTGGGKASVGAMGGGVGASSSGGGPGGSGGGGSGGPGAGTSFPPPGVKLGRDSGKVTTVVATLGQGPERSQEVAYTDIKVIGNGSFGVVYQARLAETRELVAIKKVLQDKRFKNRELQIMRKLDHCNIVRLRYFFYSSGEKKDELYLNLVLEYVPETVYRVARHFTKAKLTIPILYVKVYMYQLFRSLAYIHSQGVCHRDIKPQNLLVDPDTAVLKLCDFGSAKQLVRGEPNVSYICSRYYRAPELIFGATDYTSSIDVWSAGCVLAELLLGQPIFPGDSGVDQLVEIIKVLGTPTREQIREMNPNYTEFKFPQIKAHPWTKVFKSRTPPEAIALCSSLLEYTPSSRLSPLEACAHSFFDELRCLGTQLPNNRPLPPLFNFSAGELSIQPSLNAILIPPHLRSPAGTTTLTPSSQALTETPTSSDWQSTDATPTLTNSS
CaMKI, sequence (Q14012 whole entry): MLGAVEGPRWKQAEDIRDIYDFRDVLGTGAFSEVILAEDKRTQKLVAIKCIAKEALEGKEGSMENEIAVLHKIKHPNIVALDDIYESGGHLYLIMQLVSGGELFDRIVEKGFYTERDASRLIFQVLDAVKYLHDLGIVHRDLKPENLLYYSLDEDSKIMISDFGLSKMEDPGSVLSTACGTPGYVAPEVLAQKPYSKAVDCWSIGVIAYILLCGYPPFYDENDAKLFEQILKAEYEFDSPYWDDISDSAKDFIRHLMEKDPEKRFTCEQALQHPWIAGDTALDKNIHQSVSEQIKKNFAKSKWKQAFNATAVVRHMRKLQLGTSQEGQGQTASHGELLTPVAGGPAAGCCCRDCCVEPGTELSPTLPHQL

remaining activity at 1 µg/mL (GSK3α; 1 ug/ml): 102%
remaining activity at 25 µg/mL (GSK3α; 25 ug/ml): 11%
remaining activity at 50 µg/mL (GSK3α; 50 ug/ml): -4%
remaining activity at 1 µg/mL (PAK5; 1 ug/ml): 106%
remaining activity at 5 µg/mL (PAK5; 5 ug/ml): 99%
remaining activity at 25 µg/mL (PAK5; 25 ug/ml): 42%
remaining activity at 50 µg/mL (PAK5; 50 ug/ml): 5%
remaining activity at 1 µg/mL (Fes; 1 ug/ml): 131%
remaining activity at 5 µg/mL (Fes; 5 ug/ml): 106%
remaining activity at 25 µg/mL (Fes; 25 ug/ml): 102%
remaining activity at 50 µg/mL (Fes; 50 ug/ml): 26%
remaining activity at 1 µg/mL (CDK9/cyclin T1; 1 ug/ml): 110%
remaining activity at 5 µg/mL (CDK9/cyclin T1; 5 ug/ml): 107%
remaining activity at 25 µg/mL (CDK9/cyclin T1; 25 ug/ml): 45%
remaining activity at 50 µg/mL (CDK9/cyclin T1; 50 ug/ml): 31%
remaining activity at 1 µg/mL (CaMKI; 1 ug/ml): 142%
remaining activity at 25 µg/mL (CaMKI; 25 ug/ml): 3%
remaining activity at 1 µg/mL (IKKβ; 1 ug/ml): 145%
remaining activity at 5 µg/mL (IKKβ; 5 ug/ml): 118%
remaining activity at 25 µg/mL (IKKβ; 25 ug/ml): 61%
remaining activity at 50 µg/mL (IKKβ; 50 ug/ml): 44%
remaining activity at 1 µg/mL (cSRC; 1 ug/ml): 92%
remaining activity at 5 µg/mL (cSRC; 5 ug/ml): 50%
remaining activity at 25 µg/mL (cSRC; 25 ug/ml): 27%
remaining activity at 50 µg/mL (cSRC; 50 ug/ml): 21%
remaining activity at 25 µg/mL (CDK5/p35; 25 ug/ml): 41%
remaining activity at 50 µg/mL (CDK5/p35; 50 ug/ml): 44%
remaining activity at 25 µg/mL (IGF-1R; 25 ug/ml): 129%
remaining activity at 50 µg/mL (IGF-1R; 50 ug/ml): 139%
remaining activity at 1 µg/mL (Fer; 1 ug/ml): 55%
remaining activity at 5 µg/mL (Fer; 5 ug/ml): 20%
remaining activity at 25 µg/mL (Fer; 25 ug/ml): 10%
remaining activity at 50 µg/mL (Fer; 50 ug/ml): 1%
remaining activity at 1 µg/mL (ErbB4; 1 ug/ml): 132%
remaining activity at 5 µg/mL (ErbB4; 5 ug/ml): 85%
remaining activity at 25 µg/mL (ErbB4; 25 ug/ml): 52%
remaining activity at 50 µg/mL (ErbB4; 50 ug/ml): 27%
remaining activity at 1 µg/mL (Pim-1; 1 ug/ml): 88%
remaining activity at 5 µg/mL (Pim-1; 5 ug/ml): 35%
remaining activity at 50 µg/mL (Pim-1; 50 ug/ml): 3%
Compound: COc1cc(O)c(CC=C(C)C)c(O)c1C(=O)/C=C/c1ccc(O)cc1 [Xanthohumol, xanthohumol]
